Test results: ChEMBL document CHEMBL3217563, “Second generation analogues of RKA182: synthetic tetraoxanes with outstanding in vitro and in vivo antimalarial activities” (Medchemcomm, 2011)

Columns and labels:
Plasmodium berghei = experiment: Antimalarial activity against Plasmodium berghei ANKA infected in mouse assessed as suppression of parasitaemia at 30 mg/kg, po administered for 3 days measured on day 4 relative to control; format: functional
Plasmodium falciparum [1] = experiment: Antiplasmodial activity against chloroquine-resistant Plasmodium falciparum K1 infected in human erythrocytes assessed as [3H]hypoxanthine incorporation after 48 hrs by betaplate liquid scintillation counting analysis; format: functional, organism-based
Plasmodium falciparum [2] = experiment: Antiplasmodial activity against Plasmodium falciparum 3D7 infected in human erythrocytes assessed as [3H]hypoxanthine incorporation after 48 hrs by betaplate liquid scintillation counting analysis; format: functional, organism-based
[3] = Metabolic stability in human liver microsomes assessed as compound remaining at 10 ug/ml after 10 mins by LC/MS/MS analysis relative to control; format: ADME; settings: read-out: Stability
[4] = Metabolic stability in human liver microsomes assessed as compound remaining at 10 ug/ml after 60 mins by LC/MS/MS analysis relative to control; format: ADME; settings: read-out: Stability
[5] = Metabolic stability in human liver microsomes assessed as compound remaining at 10 ug/ml after 30 mins by LC/MS/MS analysis relative to control; format: ADME; settings: read-out: Stability
Mus musculus = experiment: Antimalarial activity against Plasmodium berghei ANKA infected in po dosed mouse assessed as suppression of parasitaemia administered for 3 days measured on day 4 relative to control; format: functional
Plasmodium falciparum [6] = experiment: Selectivity ratio of IC50 for Plasmodium falciparum 3D7 infected in human erythrocytes to IC50 for Plasmodium falciparum K1 infected in human erythrocytes; format: functional

SMILES	Activity (Plasmodium berghei) [%]	IC50 (Plasmodium falciparum [1]) [nM]	IC50 (Plasmodium falciparum [2]; Plasmodium falciparum, 3D7) [nM]	further results
CN1CCC(NC2CCC3(CC2)OOC2(OO3)C3CC4CC(C3)CC2C4)CC1 (stereo not drawn)	99.2	1.1	0.4	–
O=S1(=O)CC[N+]([O-])(C2CCC3(CC2)OOC2(OO3)C3CC4CC(C3)CC2C4)CC1 (stereo not drawn)	–	2.5	3.7	–
NC1CCN(C2CCC3(CC2)OOC2(OO3)C3CC4CC(C3)CC2C4)CC1 (stereo not drawn)	–	1.2	–	remaining at 10 min, 10 ug/ml [3]: 86.7%; remaining at 1 h, 10 ug/ml [4]: 57.4%; remaining at 0.5 h, 10 ug/ml [5]: 73.6%; IC50 (Plasmodium falciparum [2]): 1.2 nM
FC1(F)CCC(NC2CCC3(CC2)OOC2(OO3)C3CC4CC(C3)CC2C4)CC1 (stereo not drawn)	–	0.9	0.4	–
C1CN(C2CCC3(CC2)OOC2(OO3)C3CC4CC(C3)CC2C4)CCO1 (stereo not drawn)	–	0.4	0.4	–
C1CC(NC2CCC3(CC2)OOC2(OO3)C3CC4CC(C3)CC2C4)CCO1 (stereo not drawn)	–	0.4	0.7	ED50 (Mus musculus): 2.8 mg/kg; ED90 (Mus musculus): 18 mg/kg
CC(C)(C)NC1CCC2(CC1)OOC1(OO2)C2CC3CC(C2)CC1C3 (stereo not drawn)	98.7	–	1.3	–
CC(C)(C)OC(=O)NC1CCN(C2CCC3(CC2)OOC2(OO3)C3CC4CC(C3)CC2C4)CC1 (stereo not drawn)	–	–	1	–
C1CCN(C2CCC3(CC2)OOC2(OO3)C3CC4CC(C3)CC2C4)C1 (stereo not drawn)	99.8	1	0.7	–
CN1CCN(C2CCN(C(=O)CC3CCC4(CC3)OOC3(OO4)C4CC5CC(C4)CC3C5)CC2)CC1 (stereo not drawn)	–	1.12	0.819	remaining at 10 min, 10 ug/ml [3]: 62.9%; remaining at 1 h, 10 ug/ml [4]: 39.5%; remaining at 0.5 h, 10 ug/ml [5]: 40.6%
FC1(F)CCN(C2CCC3(CC2)OOC2(OO3)C3CC4CC(C3)CC2C4)CC1 (stereo not drawn)	99.8	1.3	0.6	ED50 (Mus musculus): 9.4 mg/kg; ED90 (Mus musculus): 34 mg/kg
C1CCC(NC2CCC3(CC2)OOC2(OO3)C3CC4CC(C3)CC2C4)CC1 (stereo not drawn)	–	0.2	0.4	Ratio IC50 (Plasmodium falciparum [6]): 25
Cc1ccc(S(=O)(=O)O)cc1.NC1CCN(C2CCC3(CC2)OOC2(OO3)C3CC4CC(C3)CC2C4)CC1 (stereo not drawn)	99.9	–	–	ED50 (Mus musculus): 3.7 mg/kg; ED90 (Mus musculus): 10 mg/kg; IC50 (Plasmodium falciparum [2]): 2.5 nM
C1CCN(C2CCC3(CC2)OOC2(OO3)C3CC4CC(C3)CC2C4)CC1 (stereo not drawn)	–	0.4	0.6	–
C1CC(NC2CCC3(CC2)OOC2(OO3)C3CC4CC(C3)CC2C4)CCO1.Cl (stereo not drawn)	–	–	–	ED50 (Mus musculus): 2.3 mg/kg; ED90 (Mus musculus): 11 mg/kg; IC50 (Plasmodium falciparum [2]): 1 nM
O=C1CN(C2CCC3(CC2)OOC2(OO3)C3CC4CC(C3)CC2C4)CCN1 (stereo not drawn)	98.8	–	3.5	–
C1C2CC3CC1CC(C2)C31OOC2(CCC(NC3CC3)CC2)OO1 (stereo not drawn)	99.7	–	1.5	–
C[C@H]1[C@H](OC(=O)CCC(=O)O)O[C@@H]2O[C@@]3(C)CC[C@H]4[C@H](C)CC[C@@H]1[C@@]24OO3 [ARTESUNATE]	99.6	4.9	–	ED50 (Mus musculus): 2.8 mg/kg; ED90 (Mus musculus): 18 mg/kg
C1CCN(C2CCN(C3CCC4(CC3)OOC3(OO4)C4CC5CC(C4)CC3C5)CC2)CC1 (stereo not drawn)	99.7	0.2	2.4	Ratio IC50 (Plasmodium falciparum [6]): 25
